Experimental data from patent US20250296953A1, “3,4-THIAZOLO-STEROIDS AND METHODS OF MAKING AND USING THE SAME” (Arkansas State University - Jonesboro, priority 2018, published 2025).
Read-outs that look alike come from different tables or passages of the source.

What was measured:
[1] = tested on: gliosarcoma (SF-539); experiment: NCI 60 five dose screen
[2] = tested on: SF-295; experiment: NCI 60 one dose screen; assay type: cell-based, human; conditions: one dose; CNS Cancer; SF-295
[3] = tested on: 60 different human tumor cell lines; experiment: cells
[4] = tested on: SK-MEL-25; experiment: Melanoma cytotoxicity assay (resazurin); assay type: cell-based; conditions: SK-MEL-25 melanoma cells, 24 hours with compound, resazurin; concentration not given
Procedure, shortened: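 Cells are plated at roughly 4000 per well and allowed 24 h before compound addition in triplicate. After a further 24 h, resazurin is added for 6 h and fluorescence measured; percent viability is normalized to DMSO-treated wells.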

[5] = read-out: LC50, SF-539 (CNS Cancer), five dose

Compound `C[C@]12CC[C@H]3[C@@H](CC=C4c5sc(-c6ccc(O)cc6)nc5CC[C@@]43C)[C@@H]1CC[C@@H]2O` [III.5, (1S,2R,13R,14S,17S,18S)-7-(4-hydroxyphenyl)-2,18-dimethyl-8-thia-6-azapentacyclo[11.7.0.02,10.05,9.014,18]icosa-5(9),6,10-trien-17-ol] has a GI50 ([1]; Homo sapiens, SF-539) of 0.454 µM, a CC50 ([1]; Homo sapiens, SF-539, read-out: LC50) of 91.7 µM and a TGI ([1]; SF-539 (CNS Cancer), five dose) of 3.23E−6. For the same compound, the “Growth Percent” value [2] was −36.24%, the GI50 ([3]; 786-0) was 0.423 µM and the CC50 ([3]; 786-0, read-out: LC50) was 21.2 µM. It also gave a GI50 ([3]; A498) of 3.51 µM, a CC50 ([3]; A498, read-out: LC50) greater than 100 µM and a GI50 ([3]; A549) of 5.95 µM. For the same compound, the CC50 ([3]; A549, read-out: LC50) was greater than 100 µM, the GI50 ([3]; ACHN) was 7.55 µM and the CC50 ([3]; ACHN, read-out: LC50) was greater than 100 µM. The GI50 ([3]; BT-549) was 1.14 µM, the CC50 ([3]; BT-549, read-out: LC50) was greater than 100 µM and the GI50 ([3]; CAKI-1) was 4.12 µM. For the same compound, the CC50 ([3]; CAKI-1, read-out: LC50) was greater than 100 µM, the GI50 ([3]; CCRF-CEM) was 2.05 µM and the CC50 ([3]; CCRF-CEM, read-out: LC50) was greater than 100 µM. The GI50 ([3]; COLO 205) was 9.14 µM, the CC50 ([3]; COLO 205, read-out: LC50) was greater than 100 µM and the GI50 ([3]; DU-145) was 9.54 µM. It also gave a CC50 ([3]; DU-145, read-out: LC50) greater than 100 µM, a GI50 ([3]; EKVX) of 7.29 µM and a CC50 ([3]; EKVX, read-out: LC50) greater than 100 µM. For the same compound, the GI50 ([3]; HCC 2998) was 31.9 µM, the CC50 ([3]; HCC 2998, read-out: LC50) was greater than 100 µM and the GI50 ([3]; HCT-15) was 2.43 µM. For the same compound, the CC50 ([3]; HCT-15, read-out: LC50) was greater than 100 µM, the GI50 ([3]; HCT-116) was 2.37 µM and the CC50 ([3]; HCT-116, read-out: LC50) was greater than 100 µM. It also gave a GI50 ([3]; HL-60) of 4.08 µM, a CC50 ([3]; HL-60, read-out: LC50) greater than 100 µM and a GI50 ([3]; HOP-62) of 5.25 µM. It also gave a CC50 ([3]; HOP-62, read-out: LC50) greater than 100 µM, a GI50 ([3]; HT-29) of 3.13 µM and a CC50 ([3]; HT-29, read-out: LC50) greater than 100 µM. The GI50 ([3]; Hs-578T) was 1.59 µM, the CC50 ([3]; Hs-578T, read-out: LC50) was greater than 100 µM and the GI50 ([3]; IGROV-1) was 11.1 µM. It also gave a CC50 ([3]; IGROV-1, read-out: LC50) greater than 100 µM, a GI50 ([3]; K562) of 3.48 µM and a CC50 ([3]; K562, read-out: LC50) greater than 100 µM. The GI50 ([3]; KM12) was 7.24 µM, the CC50 ([3]; KM12, read-out: LC50) was greater than 100 µM and the GI50 ([3]; LOX IMVI) was 2.67 µM. It also gave a CC50 ([3]; LOX IMVI, read-out: LC50) greater than 100 µM, a GI50 ([3]; M14) of 2.86 µM and a CC50 ([3]; M14, read-out: LC50) greater than 100 µM. For the same compound, the GI50 ([3]; MCF7) was 3.34 µM, the CC50 ([3]; MCF7, read-out: LC50) was greater than 100 µM and the GI50 ([3]; MDA-MB-231) was 6.98 µM. For the same compound, the CC50 ([3]; MDA-MB-231, read-out: LC50) was greater than 100 µM, the GI50 ([3]; MDA-MB-435) was 16.4 µM and the CC50 ([3]; MDA-MB-435, read-out: LC50) was greater than 100 µM. It also gave a GI50 ([3]; MDA-MB-468) of 5.13 µM, a CC50 ([3]; MDA-MB-468, read-out: LC50) greater than 100 µM and a GI50 ([3]; MOLT-4) of 1.93 µM. For the same compound, the CC50 ([3]; MOLT-4, read-out: LC50) was greater than 100 µM, the GI50 ([3]; Malme-3M) was 3.76 µM and the CC50 ([3]; Malme-3M, read-out: LC50) was greater than 100 µM. The GI50 ([3]; NCI-H23) was 14 µM, the CC50 ([3]; NCI-H23, read-out: LC50) was greater than 100 µM and the GI50 ([3]; NCI-H226) was 27.4 µM. The CC50 ([3]; NCI-H226, read-out: LC50) was greater than 100 µM, the GI50 ([3]; NCI-H322M) was 31.1 µM and the CC50 ([3]; NCI-H322M, read-out: LC50) was greater than 100 µM. The GI50 ([3]; NCI-H460) was 4.94 µM, the CC50 ([3]; NCI-H460, read-out: LC50) was greater than 100 µM and the GI50 ([3]; NCI-H522) was 22.6 µM. It also gave a CC50 ([3]; NCI-H522, read-out: LC50) greater than 100 µM, a GI50 ([3]; NCI/ADR-RES) of 6.77 µM and a CC50 ([3]; NCI/ADR-RES, read-out: LC50) greater than 100 µM. The GI50 ([3]; OVCAR-3) was 8.67 µM, the CC50 ([3]; OVCAR-3, read-out: LC50) was greater than 100 µM and the GI50 ([3]; OVCAR-4) was 7.24 µM. The CC50 ([3]; OVCAR-4, read-out: LC50) was greater than 100 µM, the GI50 ([3]; OVCAR-5) was 13.3 µM and the CC50 ([3]; OVCAR-5, read-out: LC50) was greater than 100 µM. The GI50 ([3]; OVCAR-8) was 40.9 µM, the CC50 ([3]; OVCAR-8, read-out: LC50) was greater than 100 µM and the GI50 ([3]; RXF 393) was 0.377 µM. For the same compound, the CC50 ([3]; RXF 393, read-out: LC50) was 8.58 µM, the GI50 ([3]; SF-268) was 5.32 µM and the CC50 ([3]; SF-268, read-out: LC50) was greater than 100 µM. For the same compound, the GI50 ([3]; SK-MEL-2) was 4.42 µM, the CC50 ([3]; SK-MEL-2, read-out: LC50) was greater than 100 µM and the GI50 ([3]; SK-MEL-5) was 3.15 µM. The CC50 ([3]; SK-MEL-5, read-out: LC50) was 48.5 µM, the GI50 ([3]; SK-MEL-28) was 3.05 µM and the CC50 ([3]; SK-MEL-28, read-out: LC50) was greater than 100 µM. The GI50 ([3]; SK-OV-3) was 19 µM, the CC50 ([3]; SK-OV-3, read-out: LC50) was greater than 100 µM and the CC50 ([3]; SN12C, read-out: LC50) was greater than 100 µM. For the same compound, the GI50 ([3]; SNB-19) was 7.95 µM, the CC50 ([3]; SNB-19, read-out: LC50) was greater than 100 µM and the GI50 ([3]; SNB-75) was 1.84 µM. It also gave a CC50 ([3]; SNB-75, read-out: LC50) greater than 100 µM, a GI50 ([3]; SW-620) of 8.4 µM and a CC50 ([3]; SW-620, read-out: LC50) greater than 100 µM. The GI50 ([3]; T47D) was 10.3 µM, the CC50 ([3]; T47D, read-out: LC50) was greater than 100 µM and the GI50 ([3]; TK-10) was greater than 100 µM. The CC50 ([3]; TK-10, read-out: LC50) was greater than 100 µM, the GI50 ([3]; U-251) was 2.23 µM and the CC50 ([3]; U-251, read-out: LC50) was greater than 100 µM. The GI50 ([3]; UACC-62) was 2.43 µM, the CC50 ([3]; UACC-62, read-out: LC50) was greater than 100 µM and the GI50 ([3]; UACC-257) was 11.9 µM. It also gave a CC50 ([3]; UACC-257, read-out: LC50) greater than 100 µM, a GI50 ([3]; UO-31) of 2.48 µM and a CC50 ([3]; UO-31, read-out: LC50) greater than 100 µM.

With “(1S,2R,13R,14S,18S)-7-(2,4-dimethylanilino)-2,18-dimethyl-6-thia-8-azapentacyclo[11.7.0.02,10.05,9.014,18]icosa-5(9),7,10-trien-17-one [IIa.14]” the “SK-MEL-25 (% inhibition)” value [4] was 15%, the GI50 ([1]; SF-539 (CNS Cancer), five dose) was 1.62 µM and the TGI ([1]; SF-539 (CNS Cancer), five dose) was 3.08E−6. For the same compound, the CC50 [1, 5] was 5.86 µM and the “Growth Percent” value [2] was 63.77%.

`C[C@]12CCc3nc(Nc4ccc(O)cc4)sc3C1=CC[C@@H]1[C@@H]2CC[C@]2(C)C(=O)CC[C@@H]12` [IIa.35] was tested, and the GI50 ([1]; SF-539 (CNS Cancer), five dose) was 1.76 µM, the TGI ([1]; SF-539 (CNS Cancer), five dose) was 3.59E−6 and the CC50 [1, 5] was 7.34 µM. For the same compound, the “Growth Percent” value [2] was 52.47%.
